Test results: ChEMBL document CHEMBL1121398, “Synthetic modulators of the complement system. 1. Synthesis and biological activity of 5,5',5''-[1,3,6-naphthalenetriyltris(sulfonylimino)]-tris[1,3-benzenedisulfonic acid] hexasodium salt” (1980)
Converted amounts (≈) assume the structure as drawn.

Columns and labels:
Homo sapiens [1] = species on record: Homo sapiens; assay: The ability to inhibit late component of human complement (C3-C9) using C-late assay
Cavia porcellus [2] = species on record: Cavia porcellus; assay: Evaluated in vitro for complement activity using guinea pig serum was determined by cap 50 assay; format: functional; details: for EC50: read-out: ED50 (the source's name)
Cavia porcellus [3] = assay: Evaluated in vivo after intraperitoneal administration by guinea pig assay; format: functional
Homo sapiens [4] = species on record: Homo sapiens; assay: Ability to destroy fluid-phase human complement 1 in the presence of complement 4 with appropriate serial twofold dilutions of the test compound using C1 assay
[5] = Inhibition of the complement alternative pathway by Mercaptan-treated human erythrocytes lyse in autologous serum via the alternative pathway activated by cobra venom factor in the presence of appropriate serial twofold dilutions of the test compound

SMILES | ED50 (Homo sapiens [1]) | EC50 (Cavia porcellus [2]) | Inhibition (Cavia porcellus [3]) | ED50 (Homo sapiens [4]) | ED50 [5] | Activity (Cavia porcellus [2])
Cc1ccc(C(=O)Nc2ccc(S(=O)(=O)O)c3cc(S(=O)(=O)O)cc(S(=O)(=O)O)c23)cc1NC(=O)c1cccc(NC(=O)Nc2cccc(C(=O)Nc3cc(C(=O)Nc4ccc(S(=O)(=O)O)c5cc(S(=O)(=O)O)cc(S(=O)(=O)O)c45)ccc3C)c2)c1 [SURAMIN] | 50 µg/mL (≈ 38.5 µM) | 603 µg/mL (≈ 465 µM) | 44% | 21 µg/mL | 167 µg/mL | –
O=S(=O)([O-])c1cc(NS(=O)(=O)c2ccc3c(S(=O)(=O)Nc4cc(S(=O)(=O)[O-])cc(S(=O)(=O)[O-])c4)cc(S(=O)(=O)Nc4cc(S(=O)(=O)[O-])cc(S(=O)(=O)[O-])c4)cc3c2)cc(S(=O)(=O)[O-])c1.[Na+].[Na+].[Na+].[Na+].[Na+].[Na+] | 12 µg/mL | 21 µg/mL | 86% | 0.7 µg/mL | 21 µg/mL | –
Nc1ccc2cc(S(=O)(=O)[O-])cc(O)c2c1/N=N/c1ccc(NC(=O)Nc2ccc(/N=N/c3c(N)ccc4cc(S(=O)(=O)[O-])cc(O)c34)c(S(=O)(=O)[O-])c2)cc1S(=O)(=O)[O-].[Na+].[Na+].[Na+].[Na+] | 6 µg/mL | – | >95% | 21 µg/mL | 167 µg/mL | 113 µg/mL
